Patent publication US8871753B2, “Macrocyclic compounds and their use as kinase inhibitors” (Incyte Corporation, priority 2008, dated 2014)
Structures can show the parent of a compound that is named as a salt. Where two headings read alike, the source gives them in different places.

Legend:
Format in all cases: biochemical
[1] = target: T1, human JAK3 (a.a. 781-1124) (Homo sapiens, UniProt P52333); experiment: In vitro JAK kinase assay (HTRF, phosphorylation of a biotinylated peptide), JAK3
T1 construct: JAK3 (a.a. 781-1124); His tag (N); made in house; host or cells: insect cells (baculovirus)
T1 sequence (P52333 781-1124): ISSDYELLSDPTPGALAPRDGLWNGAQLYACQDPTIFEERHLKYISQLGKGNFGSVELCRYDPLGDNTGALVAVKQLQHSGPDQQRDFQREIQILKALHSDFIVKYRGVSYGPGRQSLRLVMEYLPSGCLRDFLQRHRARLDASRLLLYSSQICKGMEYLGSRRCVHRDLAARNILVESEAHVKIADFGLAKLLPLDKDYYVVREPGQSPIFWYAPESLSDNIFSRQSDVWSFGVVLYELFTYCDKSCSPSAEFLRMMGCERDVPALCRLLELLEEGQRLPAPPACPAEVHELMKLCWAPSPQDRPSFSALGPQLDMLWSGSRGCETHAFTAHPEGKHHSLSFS
Experimental: The catalytic activity of JAK1, JAK2 or JAK3 was assayed by measuring the phosphorylation of a biotinylated peptide. The phosphorylated peptide was detected by homogenous time resolved fluorescence (HTRF). […] The ATP concentration in the reactions was 90 μM for JAK1, 30 μM for JAK2 and 3 μM for JAK3. Reactions were carried out at room temperature for 1 hr and then stopped with 20 μL 45 mM EDTA, 300 nM SA-APC, 6 nM Eu-Py20 in assay buffer (Perkin Elmer, Boston, Mass.). Binding to the Europium labeled antibody took place for 40 minutes and HTRF signal was measured on a Fusion plate reader (Perkin Elmer, Boston, Mass.).
The catalytic activity of JAK1, JAK2 or JAK3 was assayed by measuring the phosphorylation of a biotinylated peptide. The phosphorylated peptide was detected by homogenous time resolved fluorescence (HTRF). […] Reactions were carried out at room temperature for 1 hr and then stopped with 20 μL 45 mM EDTA, 300 nM SA-APC, 6 nM Eu-Py20 in assay buffer (Perkin Elmer, Boston, Mass.). Binding to the Europium labeled antibody took place for 40 minutes and HTRF signal was measured on a Fusion plate reader (Perkin Elmer, Boston, Mass.).

[2] = target: T2, human JAK2 (a.a. 828-1132) (Homo sapiens, UniProt O60674); experiment: In vitro JAK kinase assay (HTRF, phosphorylation of a biotinylated peptide), JAK2
T2 construct: JAK2 (a.a. 828-1132); His tag (N); made in house; host or cells: insect cells (baculovirus)
T2 sequence (O60674 828-1132): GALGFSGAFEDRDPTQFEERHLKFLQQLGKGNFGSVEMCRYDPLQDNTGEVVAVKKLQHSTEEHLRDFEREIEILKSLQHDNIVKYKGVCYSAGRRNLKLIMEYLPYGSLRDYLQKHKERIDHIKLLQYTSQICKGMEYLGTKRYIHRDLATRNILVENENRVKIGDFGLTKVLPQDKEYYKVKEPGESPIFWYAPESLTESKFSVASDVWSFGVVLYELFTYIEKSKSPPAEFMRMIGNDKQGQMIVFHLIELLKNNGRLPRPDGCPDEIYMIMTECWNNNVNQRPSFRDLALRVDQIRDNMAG
How it was run: (§1)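 Kinase reactions ran at room temperature for 1 h with ATP matched per isoform (JAK1 90 μM, JAK2 30 μM, JAK3 3 μM). After an EDTA stop, the phosphorylated biotin-peptide was read by HTRF using Eu-Py20 and SA-APC after 40 min binding.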

[3] = target: T3, human JAK1 (a.a. 837-1142) (Homo sapiens, UniProt P23458); experiment: In vitro JAK kinase assay (HTRF, phosphorylation of a biotinylated peptide), JAK1; details: read-out: JAK1 IC50
T3 construct: human JAK1 (a.a. 837-1142); His tag (N); made in house; host or cells: insect cells (baculovirus)
T3 sequence (P23458 849-1154): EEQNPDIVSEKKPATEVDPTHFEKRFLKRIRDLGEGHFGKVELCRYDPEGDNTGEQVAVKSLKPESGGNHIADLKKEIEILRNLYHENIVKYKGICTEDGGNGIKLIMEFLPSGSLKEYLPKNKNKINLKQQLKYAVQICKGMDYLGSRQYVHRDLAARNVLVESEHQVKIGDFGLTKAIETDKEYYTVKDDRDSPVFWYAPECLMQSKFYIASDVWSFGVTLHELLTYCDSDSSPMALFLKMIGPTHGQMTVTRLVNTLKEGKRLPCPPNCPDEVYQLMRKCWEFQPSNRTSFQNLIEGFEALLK
How it was run: as §1

TYK2 = TYK2 (Homo sapiens, UniProt P29597); experiment: TYK2 kinase inhibition (Table A1)
Chain of TYK2 (P29597 whole entry): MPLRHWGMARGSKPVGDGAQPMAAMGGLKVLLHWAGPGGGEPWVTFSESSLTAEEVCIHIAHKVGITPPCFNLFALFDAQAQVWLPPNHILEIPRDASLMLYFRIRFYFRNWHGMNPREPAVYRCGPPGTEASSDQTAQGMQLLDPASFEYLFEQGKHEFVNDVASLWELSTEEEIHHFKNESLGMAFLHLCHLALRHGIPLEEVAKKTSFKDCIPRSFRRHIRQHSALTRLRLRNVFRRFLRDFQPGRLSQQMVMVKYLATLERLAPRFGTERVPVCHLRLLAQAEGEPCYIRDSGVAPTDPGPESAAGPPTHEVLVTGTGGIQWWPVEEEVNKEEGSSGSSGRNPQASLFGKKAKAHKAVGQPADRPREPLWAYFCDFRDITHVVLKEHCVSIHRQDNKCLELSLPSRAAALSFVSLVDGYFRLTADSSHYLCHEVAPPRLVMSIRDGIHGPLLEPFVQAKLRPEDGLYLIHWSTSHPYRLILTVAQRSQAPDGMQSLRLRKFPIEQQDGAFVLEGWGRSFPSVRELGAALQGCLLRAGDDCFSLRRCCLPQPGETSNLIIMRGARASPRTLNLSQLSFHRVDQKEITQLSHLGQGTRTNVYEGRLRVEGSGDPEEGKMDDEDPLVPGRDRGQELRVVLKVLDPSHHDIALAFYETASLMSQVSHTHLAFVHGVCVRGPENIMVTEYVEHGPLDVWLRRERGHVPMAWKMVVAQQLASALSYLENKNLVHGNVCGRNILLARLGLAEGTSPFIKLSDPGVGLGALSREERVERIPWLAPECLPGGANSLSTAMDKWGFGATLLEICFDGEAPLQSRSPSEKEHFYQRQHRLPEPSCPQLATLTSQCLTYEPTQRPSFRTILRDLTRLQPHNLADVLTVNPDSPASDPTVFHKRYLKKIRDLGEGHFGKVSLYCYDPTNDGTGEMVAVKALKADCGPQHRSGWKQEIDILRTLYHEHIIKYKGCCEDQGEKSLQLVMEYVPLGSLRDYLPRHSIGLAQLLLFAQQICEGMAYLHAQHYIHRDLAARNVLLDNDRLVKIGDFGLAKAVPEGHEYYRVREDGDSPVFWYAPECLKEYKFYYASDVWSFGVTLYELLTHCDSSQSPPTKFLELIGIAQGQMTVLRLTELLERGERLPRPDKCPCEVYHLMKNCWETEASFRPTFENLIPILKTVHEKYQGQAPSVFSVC

Row | SMILES | IC50 ([1]; Table D1) | IC50 ([2]; Table D1) | IC50 ([3]; Table D1) | IC50 (TYK2; Table D1) | IC50 [1] | IC50 [2] | IC50 [3] | IC50 (TYK2)
1 | O=C(Nc1cccc(C(F)(F)F)c1)N1CCN(c2ccc3cc2CCc2cccc(c2)Nc2ncc(Cl)c(n2)N3)CC1 [Example D91, 4-[6-Chloro-2,4,8,22-tetraazatetracyclo[14.3.1.1(3,7).1(9,13)]docosa-1(20),3(22),4,6,9(21),10,12,16,18-nonaen-12-yl]-N-[3-(trifluoromethyl)phenyl]piperazine-1-carboxamide bis(trifluoroacetate)] | 133 nM | 32 nM | 146 nM | 156 nM | – | – | – | –
2 | O=C(COc1ccc2cc1CCc1cncc(c1)Nc1ncc(Cl)c(n1)N2)N1CCN(c2cccc(C(F)(F)F)n2)CC1 [Example D248, 6-Chloro-12-(2-oxo-2-{4-[6-(trifluoromethyl)pyridin-2-yl]piperazin-1-yl}ethoxy)-2,4,8,18,22-pentaazatetracyclo[14.3.1.1(3,7).1(9,13)]docosa-1(20),3(22),4,6,9(21),10,12,16,18-nonaene tris(trifluoroacetate)] | > 400 nM | > 400 nM | 59 nM | > 400 nM | – | – | – | –
3 | O=C(COc1ccc2cc1CCc1cncc(c1)Nc1ncc(Cl)c(n1)N2)N1CCN(c2cc(Cl)cc(Cl)n2)CC1 [Example D247, 6-Chloro-12-{2-[4-(4,6-dichloropyridin-2-yl)piperazin-1-yl]-2-oxoethoxy}-2,4,8,18,22-pentaazatetracyclo[14.3.1.1(3,7).1(9,13)]docosa-1(20),3(22),4,6,9(21),10,12,16,18-nonaene tris(trifluoroacetate)] | > 400 nM | > 400 nM | 82 nM | > 400 nM | – | – | – | –
4 | O=C(Cc1ccccn1)Nc1ccc2cc1CCc1cccc(c1)Nc1ncc(Cl)c(n1)N2 [Example C41, N-[6-Chloro-2,4,8,22-tetraazatetracyclo[14.3.1.1(3,7).1(9,13)]docosa-1(20),3(22),4,6,9(21),10,12,16,18-nonaen-12-yl]-2-pyridin-2-ylacetamide bis(trifluoroacetate)] | – | – | – | – | 1170 nM | 65 nM | 112 nM | 246 nM
5 | O=C(Nc1ccc(C(F)(F)F)cc1)N1CCN(c2ccc3cc2CCc2cccc(c2)Nc2ncc(Cl)c(n2)N3)CC1 [Example D90, 4-[6-Chloro-2,4,8,22-tetraazatetracyclo[14.3.1.1(3,7).1(9,13)]docosa-1(20),3(22),4,6,9(21),10,12,16,18-nonaen-12-yl]-N-[4-(trifluoromethyl)phenyl]piperazine-1-carboxamide bis(trifluoroacetate)] | 108 nM | 23 nM | 127 nM | 70 nM | – | – | – | –
6 | O=C(C[C@@H]1CCCN(C(=O)Nc2ccccc2)C1)Nc1ccc2cc1CCc1cccc(c1)Nc1ncc(Cl)c(n1)N2 [Example D196, (3S)-3-(2-{[6-Chloro-2,4,8,22-tetraazatetracyclo[14.3.1.1(3,7).1(9,13)]docosa-1(20),3(22),4,6,9(21),10,12,16,18-nonaen-12-yl]amino}-2-oxoethyl)-N-phenylpiperidine-1-carboxamide trifluoroacetate] | 57 nM | 6.4 nM | 11 nM | 31 nM | – | – | – | –
7 | Cc1nc(CC(=O)Nc2ccc3cc2CCc2cccc(c2)Nc2ncc(Cl)c(n2)N3)c(C)s1 [Example C46, N-[6-Chloro-2,4,8,22-tetraazatetracyclo[14.3.1.1(3,7).1(9,13)]docosa-1(20),3(22),4,6,9(21),10,12,16,18-nonaen-12-yl]-2-(2,5-dimethyl-1,3-thiazol-4-yl)acetamide trifluoroacetate] | – | – | – | – | 1490 nM | 170 nM | 79 nM | 165 nM
8 | N#Cc1ccccc1S(=O)(=O)N1CCN(C(=O)COc2ccc3cc2CCc2cncc(c2)Nc2ncc(Cl)c(n2)N3)CC1 [Example D254, 2-{[4-({[6-Chloro-2,4,8,18,22-pentaazatetracyclo[14.3.1.1(3,7).1(9,13)]docosa-1(20),3(22),4,6,9(21),10,12,16,18-nonaen-12-yl]oxy}acetyl)piperazin-1-yl]sulfonyl}benzonitrile bis(trifluoroacetate)] | > 400 nM | 49 nM | 8.1 nM | 356 nM | – | – | – | –
9 | NC1CCN(c2ccc3cc2CCc2cccc(c2)Nc2ncc(Cl)c(n2)N3)C1 (stereo not drawn) [Example D88, 1-[6-Chloro-2,4,8,22-tetraazatetracyclo[14.3.1.1(3,7).1(9,13)]docosa-1(20),3(22),4,6,9(21),10,12,16,18-nonaen-12-yl]pyrrolidin-3-amine tris(trifluoroacetate)] | 15 nM | 7.7 nM | 19 nM | 14 nM | – | – | – | –
10 | COC(=O)c1ccc2cc1CCc1cncc(c1)Nc1ncc(Cl)c(n1)N2 [Example C28, Methyl 6-chloro-2,4,8,18,22-pentaazatetracyclo[14.3.1.1(3,7).1(9,13)]docosa-1(20),3(22),4,6,9(21),10,12,16,18-nonaene-12-carboxylate] | – | – | – | – | > 200 nM | 100 nM | 120 nM | > 200 nM
11 | N#Cc1cccnc1N1CCN(C(=O)COc2ccc3cc2CCc2cncc(c2)Nc2ncc(Cl)c(n2)N3)CC1 [Example D238, 2-[4-({[6-Chloro-2,4,8,18,22-pentaazatetracyclo[14.3.1.1(3,7).1(9,13)]docosa-1(20),3(22),4,6,9(21),10,12,16,18-nonaen-12-yl]oxy}acetyl)piperazin-1-yl]nicotinonitrile tris(trifluoroacetate)] | > 400 nM | > 400 nM | 41 nM | > 400 nM | – | – | – | –
12 | O=C(COc1ccc2cc1CCc1cncc(c1)Nc1ncc(Cl)c(n1)N2)N1CCN(c2cnccn2)CC1 [Example D232, 6-Chloro-12-[2-oxo-2-(4-pyrazin-2-ylpiperazin-1-yl)ethoxy]-2,4,8,18,22-pentaazatetracyclo[14.3.1.1(3,7).1(9,13)]docosa-1(20),3(22),4,6,9(21),10,12,16,18-nonaene tris(trifluoroacetate)] | > 400 nM | 160 nM | 32 nM | > 400 nM | – | – | – | –
13 | CC(=O)N1CCN(c2ccc3cc2CCc2cccc(c2)Nc2ncc(Cl)c(n2)N3)CC1 [Example D85, 12-(4-Acetylpiperazin-1-yl)-6-chloro-2,4,8,22-tetraazatetracyclo[14.3.1.1(3,7).1(9,13)]docosa-1(20),3(22),4,6,9(21),10,12,16,18-nonaene bis(trifluoroacetate)] | 31 nM | 6.6 nM | 24 nM | 40 nM | – | – | – | –
14 | Cc1cc(C(=O)N2CCC(CC(=O)Nc3ccc4cc3CCc3cncc(c3)Nc3ncc(C)c(n3)N4)CC2)no1 [Example C51, 2-{1-[(5-Methylisoxazol-3-yl)carbonyl]piperidin-4-yl}-N-[6-methyl-2,4,8,18,22-pentaazatetracyclo[14.3.1.1(3,7).1(9,13)]docosa-1(20),3(22),4,6,9(21),10,12,16,18-nonaen-12-yl]acetamide bis(trifluoroacetate)] | – | – | – | – | > 400 nM | 371 nM | 13 nM | 100 nM
15 | O=C(C[C@@H]1CCCN(C(=O)Nc2ccccc2)C1)Nc1ccc2cc1CCc1cncc(c1)Nc1ncc(Cl)c(n1)N2 [Example D198, (3S)-3-(2-{[6-Chloro-2,4,8,18,22-pentaazatetracyclo[14.3.1.1(3,7).1(9,13)]docosa-1(20),3(22),4,6,9(21),10,12,16,18-nonaen-12-yl]amino}-2-oxoethyl)-N-phenylpiperidine-1-carboxamide bis(trifluoroacetate)] | 69 nM | 10 nM | 5.7 nM | 27 nM | – | – | – | –
